We go through 103 molecules from the RepoRT retention time repository (doi:10.1016/j.foodchem.2015.11.070).

Structures are written as SMILES.

This data set in a line: Thermo Scientific Hypersil GOLD aQ, 100 × 2.1 mm, 1.9 µm, 30 °C, 0.3 mL/min, estimated dead time 0.73 min; A: water + 0.01% formic acid + 4 mM ammonium formate; B: methanol + 0.01% formic acid + 4 mM ammonium formate; gradient (min/%B) 0/5 1/5 8/100 12/100. The following applies: stereoisomer not certain.
`CCS(=O)(=O)c1cccnc1S(=O)(=O)NC(=O)Nc1nc(OC)cc(OC)n1`: the LC retention time was 8.71 min.
In the case of `CSC(C)=NOC(=O)N(C)SN(C)C(=O)ON=C(C)SC`, the LC retention time is 8.88 min.
In the case of `COP(=S)(OC)Oc1ccc(SC)c(C)c1`, the LC retention time is 10.2 min.
In the case of `CCOP(=S)(OCC)SCn1nnc2ccccc2c1=O` it was 9.92 min; in that of `COC(=O)c1ccccc1CS(=O)(=O)NC(=O)Nc1nc(OC)cc(OC)n1`, 9.3 min; in that of `CC(Cc1ccc(C(C)(C)C)cc1)CN1CC(C)OC(C)C1` (stereo not drawn), 9.38 min.
In the case of `CCCCC(C)C(OC(=O)CC(CC(=O)O)C(=O)O)C(CC(C)CCCCCCC(O)CC(O)C(C)N)OC(=O)CC(CC(=O)O)C(=O)O` (stereo not drawn) it was 7.46 min; in that of `CNC(=O)Oc1cccc2c1OC(C)(C)C2`, 8.41 min.
In the case of `Cc1nn(C)c(Oc2ccccc2)c1C=NOCc1ccc(C(=O)OC(C)(C)C)cc1` it was 11.2 min; in that of `C=CCC1=C(C)C(OC(=O)C2C(C=C(C)C)C2(C)C)CC1=O` (stereo not drawn), 10.8 min; in that of `C=CC=CCC1=C(C)C(OC(=O)C2C(C=C(C)C(=O)OC)C2(C)C)CC1=O` (stereo not drawn), 10.3 min.
As to `CCOc1cc(OP(=S)(OC)OC)nc(CC)n1`, the LC retention time was 10.2 min.
For the molecule `CCOP(=S)(OCC)Oc1cc(C)nc(C(C)C)n1`, the LC retention time is 10.2 min.
In the case of `CCSC(=O)N(CC)C1CCCCC1` it was 10.6 min; in that of `CCSCCSP(=S)(OC)OC`, 8.94 min.
In the case of `CCNc1nc(NC(C)(C)C)nc(SC)n1` it was 9.65 min; in that of `CN(C)NC(=O)CCC(=O)O`, 1.58 min; in that of `CCC(C)C1OC2(C=CC1C)CC1CC(CC=C(C)C(OC3CC(OC)C(OC4CC(OC)C(NC)C(C)O4)C(C)O3)C(C)C=CC=C3COC4C(O)C(C)=CC(C(=O)O1)C34O)O2` (stereo not drawn), 11.9 min.
In the case of `CCN(CC)c1nc(C)cc(OP(=S)(OC)OC)n1` it was 10.3 min.
For `CCCC(=NOCC)C1=C(O)CC(CC(C)SCC)CC1=O` (stereo not drawn), the LC retention time is 10.7 min.
As for `COCCOc1ccccc1S(=O)(=O)NC(=O)Nc1nc(OC)nc(OC)n1`, the LC retention time was 8.14 min.
In the case of `CC1=CC2OC3C(O)CC(C)(C34CO4)C2(CO)C(O)C1=O` (stereo not drawn) it was 9.63 min.
With `COC(=O)c1ccccc1S(=O)(=O)NC(=O)Nc1nc(C)nc(OC)n1`, the LC retention time was 8.43 min.
Under `CCOP(=S)(OCC)Oc1cc(C)nc(N(CC)CC)n1` stands 10.7 min; under `CC(Cc1ccc(C(C)(C)C)cc1)CN1CCCCC1` (stereo not drawn), 9.29 min; under `CC(C)c1ccc(NC(=O)N(C)C)cc1`, 9.15 min.
For `CON(C(=O)c1cc(C)oc1C)C1CCCCC1`, the LC retention time is 10.2 min.
Under `CCC(CC)Nc1c([N+](=O)[O-])cc(C)c(C)c1[N+](=O)[O-]` stands 11.1 min; under `CON=C(C(=O)OC)c1ccccc1COc1ccccc1C`, 10.1 min.
In the case of `CC(C)(C)c1ccc(CCOc2ncnc3ccccc23)cc1` it was 11.8 min.
In the case of `CCSCc1ccccc1OC(=O)NC` it was 8.76 min; in that of `CCSCCSP(=O)(OC)OC`, 8.74 min; in that of `CC1(c2ccc(Oc3ccccc3)cc2)OC(=O)N(Nc2ccccc2)C1=O` (stereo not drawn), 10.2 min.
Consider `CC(=O)OCC12CC(OC(=O)CC(C)C)C(C)=CC1OC1C(O)C(OC(C)=O)C2(C)C12CO2` (stereo not drawn), for which the LC retention time was 9.3 min.
As to `COC(=O)C(C)N(C(=O)Cc1ccccc1)c1c(C)cccc1C` (stereo not drawn), the LC retention time is 10.2 min.
Under `CCCC(=NOCC)C1=C(O)CC(C2CCCSC2)CC1=O` (stereo not drawn) stands 10.5 min; under `CSc1nnc(C(C)(C)C)c(=O)n1N`, 8.41 min; under `COc1cc2c(c3oc(=O)c4c(c13)CCC4=O)C1CCOC1O2` (stereo not drawn), 8.26 min.
Under `COP(N)(=S)Oc1ccccc1C(=O)OC(C)C` (stereo not drawn) stands 9.04 min; under `CNC(=O)C=C(C)OP(=O)(OC)OC`, 6.58 min; under `Cc1nc(N(C)C)nc(OC(=O)N(C)C)c1C`, 7.91 min.
Under `CNC(=O)Oc1cccc2ccccc12` stands 8.61 min.
In the case of `CC(=O)OCC12CC(OC(=O)CC(C)C)C(C)=CC1OC1C(O)C(O)C2(C)C12CO2` (stereo not drawn), the LC retention time is 8.35 min.
Under `CNC(=O)Oc1cccc2c1OC(C)(C)O2` stands 8.4 min; under `CCOP(=O)(NC(C)C)Oc1ccc(SC)c(C)c1` (stereo not drawn), 9.99 min.
In the case of `CCOP(=S)(NC(C)C)Oc1ccccc1C(=O)OC(C)C` (stereo not drawn) it was 7.91 min; in that of `CCS(=O)Cc1ccccc1OC(=O)NC` (stereo not drawn), 7.09 min; in that of `CCOP(=S)(OCC)Oc1ccc(=O)n(-c2ccccc2)n1`, 9.71 min.
Under `CCOP(=S)(OCC)SCSCC` stands 8.44 min; under `CNC(=O)ON=C(CS(C)(=O)=O)C(C)(C)C`, 6.92 min; under `COP(=O)(NC(C)=O)SC` (stereo not drawn), 1.58 min.
With `Cc1nnc(-c2ccccc2)c(=O)n1N`, the LC retention time was 7.23 min.
In the case of `COC(=O)c1sccc1S(=O)(=O)NC(=O)Nc1nc(C)nc(OC)n1` it was 8.32 min; in that of `CCS(=O)CCSP(=O)(OC)OC` (stereo not drawn), 6.04 min; in that of `COc1cc2c(c3oc(=O)c4c(c13)CCOC4=O)C1CCOC1O2` (stereo not drawn), 7.8 min.
Take `CC(C)=CC1C(C(=O)OCN2C(=O)C3=C(CCCC3)C2=O)C1(C)C` (stereo not drawn): the LC retention time is 10.7 min.
Under `Cc1ccc2nc3sc(=O)sc3nc2c1` stands 9.19 min; under `CCOP(=S)(OCC)Oc1cnc2ccccc2n1`, 10.2 min.
Under `CNC(=O)CSP(=S)(OC)OC` stands 7.18 min; under `CCOC(=O)NCCOc1ccc(Oc2ccccc2)cc1`, 9.38 min; under `CCCN(CCC)C(=O)SCC`, 10.1 min.
Take `CCOP(=O)(SC(C)CC)N1CCSC1=O` (stereo not drawn): the LC retention time is 8.81 min.
In the case of `CNC(=O)Oc1cc(C)c(S(C)=O)c(C)c1` (stereo not drawn) it was 7.09 min.
Under `CCNC(=O)NC(=O)C(C#N)=NOC` stands 8.63 min.
As to `CCOC(=O)Nc1cccc(OC(=O)Nc2ccccc2)c1`, the LC retention time is 9.23 min.
Under `CC(C)N1C(=O)N(c2ccccc2)CSC1=NC(C)(C)C` stands 10.7 min; under `CCOc1ccc(NC(=O)OC(C)C)cc1OCC`, 9.37 min.
Under `CCOP(=S)(Oc1ccc([N+](=O)[O-])cc1)c1ccccc1` (stereo not drawn) stands 9.71 min.
Under `CC(C)N(Cc1ccccc1)C(=O)C(C)(C)C` stands 9.96 min.
On to `CCCCc1c(C)nc(NCC)nc1OS(=O)(=O)N(C)C`, for which the LC retention time is 9.87 min.
For `CCOc1ccc2c(c1)C(C)=CC(C)(C)N2`, the LC retention time is 9.07 min.
In the case of `CC#Cc1cc(C)nc(Nc2ccccc2)n1` it was 10 min.
In the case of `COC(=O)NC(=S)Nc1ccccc1NC(=S)NC(=O)OC` it was 8.31 min; in that of `CCOC(=O)N(C)C(=O)CSP(=S)(OCC)OCC`, 9.84 min; in that of `Cc1cc(C)nc(Nc2ccccc2)n1`, 9.6 min.
`CCOP(=S)(OCC)SCCSCC`: the LC retention time was 10.4 min.
In the case of `CCC(C)Nc1c([N+](=O)[O-])cc(C(C)(C)C)cc1[N+](=O)[O-]` (stereo not drawn) it was 9.23 min; in that of `COP(=S)(NC(C)C)Oc1ccccc1C(=O)OC(C)C` (stereo not drawn), 8.98 min.
In the case of `CNc1nc(NC(C)C)nc(SC)n1` it was 8.62 min.
With `CNC(=O)Oc1cc(C)c(SC)c(C)c1`, the LC retention time is 8.76 min.
Under `CCOP(=S)(OCC)SCCS(=O)(=O)CC` stands 8.89 min; under `Cc1cc(=O)[nH]o1`, 5.67 min.
On to `COP(=O)(OC)OC(C)=CC(=O)N(C)C`, for which the LC retention time was 6.63 min.
As to `CCOP(=S)(OCC)OP(=S)(OCC)OCC`, the LC retention time is 10.1 min.
Under `CCCCN(CCCC)SN(C)C(=O)Oc1cccc2c1OC(C)(C)C2` stands 11.1 min; under `CCOc1ccc(C(C)(C)COCc2cccc(Oc3ccccc3)c2)cc1`, 11.7 min.
In the case of `CC1(C)C(C(=O)OC(C#N)c2cccc(Oc3ccccc3)c2)C1(C)C` (stereo not drawn) it was 11 min; in that of `CCOP(=O)(NC(C)C)Oc1ccc(S(C)=O)c(C)c1` (stereo not drawn), 8.44 min.
For `CCOC(=O)C(SP(=S)(OC)OC)c1ccccc1` (stereo not drawn), the LC retention time was 10.1 min.
Turning to `CSc1nc(NC(C)C)nc(NC(C)C)n1`, the LC retention time is 9.65 min.
As to `CCOP(=S)(OCC)SCSC(C)(C)C`, the LC retention time is 7.2 min.
For `c1ccc(Nc2ccccc2)cc1`, the LC retention time is 6.3 min.
In the case of `CNC(=O)C(C)SCCSP(=O)(OC)OC` (stereo not drawn) it was 7.11 min; in that of `CNC(=O)ON=C(SC)C(=O)N(C)C`, 5.75 min.
In the case of `CNC(=O)Oc1cc(C)cc(C(C)C)c1` it was 9.52 min; in that of `CCNc1nc(NC(C)(C)C)nc(OC)n1`, 8.88 min.
In the case of `CNC(=O)ON=C(CSC)C(C)(C)C` it was 8.21 min; in that of `COCC(=O)N(c1c(C)cccc1C)N1CCOC1=O`, 8.04 min.
As for `CCCN(CC)CC1COC2(CCC(C(C)(C)C)CC2)O1` (stereo not drawn), the LC retention time is 9.58 min.
Under `C=CC=CCC1=C(C)C(OC(=O)C2C(C=C(C)C)C2(C)C)CC1=O` (stereo not drawn) stands 11 min; under `CNC(=O)ON=CC(C)(C)S(C)(=O)=O`, 7.37 min.
Under `c1ccc2[nH]c(-c3cscn3)nc2c1` stands 6.96 min; under `CCOC1Oc2ccc(OS(C)(=O)=O)cc2C1(C)C` (stereo not drawn), 9.42 min.
